Experimental data: patent publication US11339163B2, “BRaf inhibitors and use thereof for treatment of cutaneous reactions” (Lutris Pharma Ltd., priority 2017, dated 2022)

Columns and labels:
Assay in all cases: KinaseProfiler kinase selectivity assay
Assay type in all cases: biochemical
ALK(h) = ALK(h) (Homo sapiens, UniProt Q9UM73)
Description: (§1) All compounds were prepared to 50× final assay concentration in 100% DMSO. This working stock of the compound was added to the assay well as the first component in the reaction, followed by the remaining components. In the standard KinaseProfiler™ service, there is no pre-incubation step between the compound and the kinase prior to initiation of the reaction. The positive control wells contain all components of the reaction, except the compound of interest; however, DMSO (at a final concentration of 2%) is included in these wells to control for solvent effects. The blank wells contain all components of the reaction, with a reference inhibitor replacing the compound of interest. This abolishes kinase activity and establishes the base-line (0% kinase activity remaining).

PKA(h) = PKA(h) (Homo sapiens, UniProt P17612)
Description: as §1

IKKα(h) = IKKα(h) (Homo sapiens, UniProt O15111)
Description: as §1

PKG1α(h) = PKG1α(h) (Homo sapiens, UniProt Q13976)
Description: as §1

DRAK1(h) = DRAK1(h) (Homo sapiens, UniProt Q9UEE5)
Description: as §1

SAPK2a(h) = SAPK2a(h) (Homo sapiens, UniProt Q16539)
Sequence of SAPK2a(h) (Q16539 whole entry): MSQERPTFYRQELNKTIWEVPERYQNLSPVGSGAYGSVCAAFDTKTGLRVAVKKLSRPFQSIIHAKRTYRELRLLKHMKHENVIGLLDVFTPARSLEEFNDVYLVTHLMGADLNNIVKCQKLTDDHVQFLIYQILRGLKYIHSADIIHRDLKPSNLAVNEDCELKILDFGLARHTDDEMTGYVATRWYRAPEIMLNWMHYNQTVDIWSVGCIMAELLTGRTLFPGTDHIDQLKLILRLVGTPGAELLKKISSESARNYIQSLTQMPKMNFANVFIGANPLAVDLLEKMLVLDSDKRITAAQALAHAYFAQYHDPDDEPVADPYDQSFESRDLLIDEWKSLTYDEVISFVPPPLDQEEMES
Description: as §1

Abl(h) = Abl(h) (Homo sapiens, UniProt P00519)
Description: as §1

PKCα(h) = PKCα(h) (Homo sapiens, UniProt P17252)
Description: as §1

CDK9/cyclin T1(h) = CDK9/cyclin T1(h) (Homo sapiens, UniProt P50750)
Description: as §1

ROCK-I(h) = ROCK-I(h) (Homo sapiens, UniProt Q13464)
Description: as §1

Rse(h) = Rse(h) (Homo sapiens, UniProt Q06418)
Sequence of Rse(h) (Q06418 41-890): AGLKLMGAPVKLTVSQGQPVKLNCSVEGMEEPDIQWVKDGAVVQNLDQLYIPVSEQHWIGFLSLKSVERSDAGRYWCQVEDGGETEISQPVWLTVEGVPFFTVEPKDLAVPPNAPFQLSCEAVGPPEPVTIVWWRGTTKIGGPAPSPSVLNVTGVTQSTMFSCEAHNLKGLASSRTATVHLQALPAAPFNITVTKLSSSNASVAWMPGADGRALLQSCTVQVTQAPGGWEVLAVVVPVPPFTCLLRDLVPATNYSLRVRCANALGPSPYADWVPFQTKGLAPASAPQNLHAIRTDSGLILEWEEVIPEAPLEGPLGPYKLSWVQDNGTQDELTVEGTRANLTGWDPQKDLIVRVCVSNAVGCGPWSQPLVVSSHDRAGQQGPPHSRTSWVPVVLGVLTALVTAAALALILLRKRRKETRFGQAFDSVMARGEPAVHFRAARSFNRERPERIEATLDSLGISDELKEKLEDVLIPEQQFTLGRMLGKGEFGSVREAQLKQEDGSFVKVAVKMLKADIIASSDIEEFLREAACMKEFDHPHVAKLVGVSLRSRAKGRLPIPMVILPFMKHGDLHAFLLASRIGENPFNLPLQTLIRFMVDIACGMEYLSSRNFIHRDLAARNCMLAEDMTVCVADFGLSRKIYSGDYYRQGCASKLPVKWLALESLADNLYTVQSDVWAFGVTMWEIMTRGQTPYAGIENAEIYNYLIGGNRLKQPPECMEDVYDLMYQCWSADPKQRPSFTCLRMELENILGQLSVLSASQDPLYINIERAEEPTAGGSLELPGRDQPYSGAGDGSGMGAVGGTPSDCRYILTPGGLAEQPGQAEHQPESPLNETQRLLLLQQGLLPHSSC
Description: as §1

Aurora-A(h) = Aurora-A(h) (Homo sapiens, UniProt O14965)
Sequence of Aurora-A(h) (O14965 whole entry): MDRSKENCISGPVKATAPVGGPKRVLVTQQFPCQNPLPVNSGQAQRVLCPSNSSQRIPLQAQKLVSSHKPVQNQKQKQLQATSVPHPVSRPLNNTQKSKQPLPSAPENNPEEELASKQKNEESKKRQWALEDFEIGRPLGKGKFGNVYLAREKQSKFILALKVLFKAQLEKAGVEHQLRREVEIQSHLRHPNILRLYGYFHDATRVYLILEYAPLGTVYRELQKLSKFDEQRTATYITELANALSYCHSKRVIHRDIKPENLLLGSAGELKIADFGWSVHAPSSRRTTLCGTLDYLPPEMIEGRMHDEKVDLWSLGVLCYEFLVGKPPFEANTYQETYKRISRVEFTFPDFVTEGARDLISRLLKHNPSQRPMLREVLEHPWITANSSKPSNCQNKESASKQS
Description: as §1

mTOR(h) = mTOR(h) (Homo sapiens, UniProt P42345)
Description: as §1

IGF-1R(h) = IGF-1R(h) (Homo sapiens, UniProt P08069)
Sequence of IGF-1R(h) (P08069 31-1367): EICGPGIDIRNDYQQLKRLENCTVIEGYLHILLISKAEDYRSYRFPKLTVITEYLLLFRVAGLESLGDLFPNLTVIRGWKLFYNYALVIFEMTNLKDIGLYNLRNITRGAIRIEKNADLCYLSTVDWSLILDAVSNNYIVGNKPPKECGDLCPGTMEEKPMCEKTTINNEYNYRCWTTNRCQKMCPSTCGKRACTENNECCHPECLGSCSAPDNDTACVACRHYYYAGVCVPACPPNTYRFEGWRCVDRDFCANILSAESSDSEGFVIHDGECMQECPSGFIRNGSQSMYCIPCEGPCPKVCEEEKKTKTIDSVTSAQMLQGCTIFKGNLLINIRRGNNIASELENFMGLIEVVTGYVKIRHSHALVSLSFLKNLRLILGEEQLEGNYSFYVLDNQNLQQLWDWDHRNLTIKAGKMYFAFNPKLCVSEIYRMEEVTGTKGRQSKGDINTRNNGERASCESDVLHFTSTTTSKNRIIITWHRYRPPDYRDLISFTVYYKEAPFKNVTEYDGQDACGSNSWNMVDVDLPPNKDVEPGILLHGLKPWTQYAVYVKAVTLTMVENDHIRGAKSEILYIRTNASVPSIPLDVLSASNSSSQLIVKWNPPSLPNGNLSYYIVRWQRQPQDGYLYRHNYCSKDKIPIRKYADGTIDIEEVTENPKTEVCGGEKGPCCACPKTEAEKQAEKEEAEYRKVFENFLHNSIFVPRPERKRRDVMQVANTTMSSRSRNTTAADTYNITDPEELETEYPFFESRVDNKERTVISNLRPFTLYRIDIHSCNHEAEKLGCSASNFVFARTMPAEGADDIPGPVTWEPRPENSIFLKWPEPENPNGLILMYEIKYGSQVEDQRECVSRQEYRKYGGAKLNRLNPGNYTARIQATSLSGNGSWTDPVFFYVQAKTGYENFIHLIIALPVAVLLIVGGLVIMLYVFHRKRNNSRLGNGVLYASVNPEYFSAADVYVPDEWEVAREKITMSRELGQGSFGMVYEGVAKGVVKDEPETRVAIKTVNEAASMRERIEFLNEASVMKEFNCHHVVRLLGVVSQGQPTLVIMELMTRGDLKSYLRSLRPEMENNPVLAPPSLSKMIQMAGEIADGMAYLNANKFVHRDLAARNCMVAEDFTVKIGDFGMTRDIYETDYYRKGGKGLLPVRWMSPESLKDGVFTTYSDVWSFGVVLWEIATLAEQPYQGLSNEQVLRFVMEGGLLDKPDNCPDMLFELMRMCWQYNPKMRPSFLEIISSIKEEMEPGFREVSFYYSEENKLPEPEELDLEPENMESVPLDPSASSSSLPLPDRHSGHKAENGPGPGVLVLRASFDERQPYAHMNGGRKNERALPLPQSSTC
Description: as §1

CaMKI(h) = CaMKI(h) (Homo sapiens, UniProt Q14012)
Sequence of CaMKI(h) (Q14012 whole entry): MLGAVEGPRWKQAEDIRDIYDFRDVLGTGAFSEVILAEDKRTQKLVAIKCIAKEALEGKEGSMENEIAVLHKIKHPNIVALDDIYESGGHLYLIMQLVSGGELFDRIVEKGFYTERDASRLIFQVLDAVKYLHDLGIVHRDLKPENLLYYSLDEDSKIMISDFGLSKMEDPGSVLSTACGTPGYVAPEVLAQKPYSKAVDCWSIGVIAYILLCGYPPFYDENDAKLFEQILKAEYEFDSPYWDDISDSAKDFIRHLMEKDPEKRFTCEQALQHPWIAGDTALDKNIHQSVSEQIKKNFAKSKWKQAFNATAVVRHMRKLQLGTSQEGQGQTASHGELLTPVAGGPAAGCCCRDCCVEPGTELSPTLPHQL
Description: as §1

MST1(h) = MST1(h) (Homo sapiens, UniProt Q13043)
Description: as §1

c-RAF(h) = c-RAF(h) (Homo sapiens, UniProt P04049)
Description: as §1

EphA5(h) = EphA5(h) (Homo sapiens, UniProt P54756)
Description: as §1

MLK1(h) = MLK1(h) (Homo sapiens, UniProt P80192)
Description: as §1

CK2α2(h) = CK2α2(h) (Homo sapiens, UniProt P19784)
Description: as §1

MAPKAP-K2(h) = MAPKAP-K2(h) (Homo sapiens, UniProt P49137)
Description: as §1

Rsk1(h) = Rsk1(h) (Homo sapiens, UniProt Q15418)
Description: as §1

[1] = target: PI3 Kinase (p110β/p85α)(h) (Homo sapiens, UniProt P42338)
Description: as §1

MSK2(h) = MSK2(h) (Homo sapiens, UniProt O75676)
Description: as §1

PDGFRβ(h) = PDGFRβ(h) (Homo sapiens, UniProt P09619)
Sequence of PDGFRβ(h) (P09619 33-1106): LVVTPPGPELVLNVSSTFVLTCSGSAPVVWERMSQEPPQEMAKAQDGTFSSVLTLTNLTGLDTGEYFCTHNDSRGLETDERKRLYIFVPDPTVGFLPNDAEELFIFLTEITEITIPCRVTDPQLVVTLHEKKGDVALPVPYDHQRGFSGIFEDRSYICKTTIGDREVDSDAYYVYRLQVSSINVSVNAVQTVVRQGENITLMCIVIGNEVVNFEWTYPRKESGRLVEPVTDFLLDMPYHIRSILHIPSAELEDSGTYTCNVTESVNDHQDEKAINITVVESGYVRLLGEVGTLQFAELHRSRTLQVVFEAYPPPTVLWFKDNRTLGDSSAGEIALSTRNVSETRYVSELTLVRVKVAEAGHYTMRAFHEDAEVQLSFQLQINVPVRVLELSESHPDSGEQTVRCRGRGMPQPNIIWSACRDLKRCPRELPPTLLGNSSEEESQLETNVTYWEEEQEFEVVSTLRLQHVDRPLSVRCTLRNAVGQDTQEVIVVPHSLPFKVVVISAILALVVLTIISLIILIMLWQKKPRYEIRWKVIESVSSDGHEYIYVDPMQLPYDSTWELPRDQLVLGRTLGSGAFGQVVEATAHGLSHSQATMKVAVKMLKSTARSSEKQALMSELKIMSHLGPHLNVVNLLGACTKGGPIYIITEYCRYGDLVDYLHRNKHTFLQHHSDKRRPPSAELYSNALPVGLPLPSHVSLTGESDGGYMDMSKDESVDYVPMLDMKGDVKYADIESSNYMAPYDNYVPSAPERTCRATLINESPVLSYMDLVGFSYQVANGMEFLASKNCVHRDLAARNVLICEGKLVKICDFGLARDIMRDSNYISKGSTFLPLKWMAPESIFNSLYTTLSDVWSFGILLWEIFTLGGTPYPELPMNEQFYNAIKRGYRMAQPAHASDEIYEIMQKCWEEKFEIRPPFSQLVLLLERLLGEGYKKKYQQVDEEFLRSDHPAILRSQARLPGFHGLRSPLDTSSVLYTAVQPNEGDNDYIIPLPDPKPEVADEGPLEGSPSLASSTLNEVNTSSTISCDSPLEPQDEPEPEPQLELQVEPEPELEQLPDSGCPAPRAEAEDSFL
Description: as §1

CHK1(h) = CHK1(h) (Homo sapiens, UniProt O14757)
Description: as §1

Lyn(h) = Lyn(h) (Homo sapiens, UniProt P07948)
Description: as §1

CDK6/cyclinD3(h) = CDK6/cyclinD3(h) (Homo sapiens, UniProt Q00534)
Description: as §1

AMPKα1(h) = AMPKα1(h) (Homo sapiens, UniProt Q13131)
Description: as §1

[2] = target: PI3 Kinase (p110α/p85α)(h) (Homo sapiens, UniProt P42336)
Description: as §1

Plk3(h) = Plk3(h) (Homo sapiens, UniProt Q9H4B4)
Description: as §1

**Q.** Which remaining activity at 0.01 µM (ALK(h); Lut014 @ 0.01 μM) does the source give for `Cc1ccc2c(Nc3cccc(OC(F)(F)F)c3)nccc2c1Nc1ncccc1-c1ncnc2[nH]cnc12` [LUT014] here?
**A.** 150%

**Q.** What about the remaining activity at 1 µM (ALK(h); Lut014 @ 1 μM) of the same compound?
**A.** 83%

**Q.** What about the remaining activity at 0.01 µM (PKA(h); Lut014 @ 0.01 μM) of the same compound?
**A.** 114%

**Q.** What about the remaining activity at 1 µM (PKA(h); Lut014 @ 1 μM) of the same compound?
**A.** 106%

**Q.** And the remaining activity at 0.01 µM (IKKα(h); Lut014 @ 0.01 μM)?
**A.** 105%

**Q.** What about the remaining activity at 1 µM (IKKα(h); Lut014 @ 1 μM) of the same compound?
**A.** 105%

**Q.** And the remaining activity at 0.01 µM (PKG1α(h); Lut014 @ 0.01 μM)?
**A.** 99%

**Q.** What about the remaining activity at 1 µM (PKG1α(h); Lut014 @ 1 μM) of the same compound?
**A.** 111%

**Q.** What about the remaining activity at 0.01 µM (DRAK1(h); Lut014 @ 0.01 μM) of the same compound?
**A.** 99%

**Q.** What about the remaining activity at 1 µM (DRAK1(h); Lut014 @ 1 μM) of the same compound?
**A.** 117%

**Q.** What about the remaining activity at 0.01 µM (SAPK2a(h); Lut014 @ 0.01 μM) of the same compound?
**A.** 97%

**Q.** And the remaining activity at 1 µM (SAPK2a(h); Lut014 @ 1 μM)?
**A.** 54%

**Q.** And the remaining activity at 0.01 µM (Abl(h); Lut014 @ 0.01 μM)?
**A.** 92%

**Q.** And the remaining activity at 1 µM (Abl(h); Lut014 @ 1 μM)?
**A.** 25%

**Q.** What about the remaining activity at 0.01 µM (PKCα(h); Lut014 @ 0.01 μM) of the same compound?
**A.** 102%

**Q.** What about the remaining activity at 1 µM (PKCα(h); Lut014 @ 1 μM) of the same compound?
**A.** 107%

**Q.** And the remaining activity at 0.01 µM (CDK9/cyclin T1(h); Lut014 @ 0.01 μM)?
**A.** 110%

**Q.** And the remaining activity at 1 µM (CDK9/cyclin T1(h); Lut014 @ 1 μM)?
**A.** 98%

**Q.** And the remaining activity at 0.01 µM (ROCK-I(h); Lut014 @ 0.01 μM)?
**A.** 107%

**Q.** What about the remaining activity at 1 µM (ROCK-I(h); Lut014 @ 1 μM) of the same compound?
**A.** 107%

**Q.** What about the remaining activity at 0.01 µM (Rse(h); Lut014 @ 0.01 μM) of the same compound?
**A.** 106%

**Q.** And the remaining activity at 1 µM (Rse(h); Lut014 @ 1 μM)?
**A.** 113%

**Q.** And the remaining activity at 0.01 µM (Aurora-A(h); Lut014 @ 0.01 μM)?
**A.** 95%

**Q.** And the remaining activity at 1 µM (Aurora-A(h); Lut014 @ 1 μM)?
**A.** 97%

**Q.** And the remaining activity at 0.01 µM (mTOR(h); Lut014 @ 0.01 μM)?
**A.** 100%

**Q.** And the remaining activity at 1 µM (mTOR(h); Lut014 @ 1 μM)?
**A.** 96%

**Q.** And the remaining activity at 0.01 µM (IGF-1R(h); Lut014 @ 0.01 μM)?
**A.** 88%

**Q.** And the remaining activity at 1 µM (IGF-1R(h); Lut014 @ 1 μM)?
**A.** 86%

**Q.** What about the remaining activity at 0.01 µM (CaMKI(h); Lut014 @ 0.01 μM) of the same compound?
**A.** 101%

**Q.** And the remaining activity at 1 µM (CaMKI(h); Lut014 @ 1 μM)?
**A.** 97%

**Q.** And the remaining activity at 0.01 µM (MST1(h); Lut014 @ 0.01 μM)?
**A.** 98%

**Q.** What about the remaining activity at 1 µM (MST1(h); Lut014 @ 1 μM) of the same compound?
**A.** 112%

**Q.** And the remaining activity at 0.01 µM (c-RAF(h); Lut014 @ 0.01 μM)?
**A.** 105%

**Q.** What about the remaining activity at 1 µM (c-RAF(h); Lut014 @ 1 μM) of the same compound?
**A.** 30%

**Q.** What about the remaining activity at 0.01 µM (EphA5(h); Lut014 @ 0.01 μM) of the same compound?
**A.** 99%

**Q.** What about the remaining activity at 1 µM (EphA5(h); Lut014 @ 1 μM) of the same compound?
**A.** 56%

**Q.** And the remaining activity at 0.01 µM (MLK1(h); Lut014 @ 0.01 μM)?
**A.** 109%

**Q.** What about the remaining activity at 1 µM (MLK1(h); Lut014 @ 1 μM) of the same compound?
**A.** 112%

**Q.** And the remaining activity at 0.01 µM (CK2α2(h); Lut014 @ 0.01 μM)?
**A.** 98%

**Q.** And the remaining activity at 1 µM (CK2α2(h); Lut014 @ 1 μM)?
**A.** 92%

**Q.** And the remaining activity at 0.01 µM (MAPKAP-K2(h); Lut014 @ 0.01 μM)?
**A.** 110%

**Q.** What about the remaining activity at 1 µM (MAPKAP-K2(h); Lut014 @ 1 μM) of the same compound?
**A.** 103%

**Q.** And the remaining activity at 0.01 µM (Rsk1(h); Lut014 @ 0.01 μM)?
**A.** 106%

**Q.** What about the remaining activity at 1 µM (Rsk1(h); Lut014 @ 1 μM) of the same compound?
**A.** 112%

**Q.** What about the remaining activity at 0.01 µM ([1]; Lut014 @ 0.01 μM) of the same compound?
**A.** 101%

**Q.** What about the remaining activity at 1 µM ([1]; Lut014 @ 1 μM) of the same compound?
**A.** 95%

**Q.** And the remaining activity at 0.01 µM (MSK2(h); Lut014 @ 0.01 μM)?
**A.** 92%

**Q.** And the remaining activity at 1 µM (MSK2(h); Lut014 @ 1 μM)?
**A.** 96%

**Q.** What about the remaining activity at 0.01 µM (PDGFRβ(h); Lut014 @ 0.01 μM) of the same compound?
**A.** 98%

**Q.** And the remaining activity at 1 µM (PDGFRβ(h); Lut014 @ 1 μM)?
**A.** 103%

**Q.** What about the remaining activity at 0.01 µM (CHK1(h); Lut014 @ 0.01 μM) of the same compound?
**A.** 100%

**Q.** And the remaining activity at 1 µM (CHK1(h); Lut014 @ 1 μM)?
**A.** 114%

**Q.** And the remaining activity at 0.01 µM (Lyn(h); Lut014 @ 0.01 μM)?
**A.** 101%

**Q.** What about the remaining activity at 1 µM (Lyn(h); Lut014 @ 1 μM) of the same compound?
**A.** 46%

**Q.** And the remaining activity at 0.01 µM (CDK6/cyclinD3(h); Lut014 @ 0.01 μM)?
**A.** 100%

**Q.** And the remaining activity at 1 µM (CDK6/cyclinD3(h); Lut014 @ 1 μM)?
**A.** 103%

**Q.** What about the remaining activity at 0.01 µM (AMPKα1(h); Lut014 @ 0.01 μM) of the same compound?
**A.** 106%

**Q.** And the remaining activity at 1 µM (AMPKα1(h); Lut014 @ 1 μM)?
**A.** 114%

**Q.** What about the remaining activity at 0.01 µM ([2]; Lut014 @ 0.01 μM) of the same compound?
**A.** 92%

**Q.** And the remaining activity at 1 µM ([2]; Lut014 @ 1 μM)?
**A.** 84%

**Q.** And the remaining activity at 0.01 µM (Plk3(h); Lut014 @ 0.01 μM)?
**A.** 85%

**Q.** And the remaining activity at 1 µM (Plk3(h); Lut014 @ 1 μM)?
**A.** 87%
